Test results: the NIST ThermoML archive (doi:10.1016/j.jct.2011.09.001)
Numbers after ± are expanded uncertainties.

Columns and labels:
[1] = refractive index (Na D-line) (dimensionless); conditions: 101.33 kPa, Liquid, Standard Abbe refractometry
[2] = 101 kPa, Liquid; for speed of sound: Sing-around technique in a fixed-path interferometer; for mass density: Vibrating tube method
[3] = xn = mol fraction of the nth substance listed; conditions: 101 kPa, Liquid, x2 = 0; for speed of sound: Sing-around technique in a fixed-path interferometer; for mass density: Vibrating tube method
[4] = refractive index (Na D-line) (dimensionless); xn = mol fraction of the nth substance listed; conditions: 101 kPa, Liquid, Standard Abbe refractometry, x2 = 0

CCCCCCCCCC [decane]
Conditions	mass density, [2] [kg/m3]	refractive index, [1]	speed of sound, [2] [m/s]
293.15 K	730.1 ± 0.2	1.4123 ± 0.0005	1254.6 ± 1.2
303.15 K	722.6 ± 0.3	1.4079 ± 0.0005	1215.1 ± 1.2
313.15 K	714.9 ± 0.3	1.4033 ± 0.0005	1176.1 ± 1.2
323.15 K	707.3 ± 0.3	1.3987 ± 0.0005	1137.6 ± 1.2
333.15 K	699.5 ± 0.3	1.3942 ± 0.0005	1099.8 ± 1.2
343.15 K	691.8 ± 0.3	1.3893 ± 0.0005	1062.3 ± 1.2

c1ccc2c(c1)CCCC2 [1,2,3,4-tetrahydronaphthalene]
Conditions	mass density, [2] [kg/m3]	refractive index, [1]	speed of sound, [2] [m/s]
293.15 K	969.5 ± 0.2	1.5414 ± 0.0005	1489.5 ± 1.3
303.15 K	961.6 ± 0.2	1.5367 ± 0.0005	1450.1 ± 1.2
313.15 K	953.7 ± 0.2	1.5321 ± 0.0005	1411.5 ± 1.2
323.15 K	945.7 ± 0.2	1.5274 ± 0.0005	1373.6 ± 1.2
333.15 K	937.8 ± 0.2	1.5228 ± 0.0005	1336.4 ± 1.2
343.15 K	929.8 ± 0.2	1.518 ± 0.0005	1299.8 ± 1.2

CCCCCCCCCC [decane] + c1ccc2c(c1)CCCC2
Conditions	mass density, [3] [kg/m3]	refractive index, [4]	speed of sound, [3] [m/s]
293.15 K	730.1 ± 0.2	1.4123 ± 0.0005	1254.6 ± 1.2
303.15 K	722.6 ± 0.3	1.4079 ± 0.0005	1215.1 ± 1.2
313.15 K	714.9 ± 0.3	1.4033 ± 0.0005	1176.1 ± 1.2
323.15 K	707.3 ± 0.3	1.3987 ± 0.0005	1137.6 ± 1.2
333.15 K	699.5 ± 0.3	1.3942 ± 0.0005	1099.8 ± 1.2
343.15 K	691.8 ± 0.3	1.3893 ± 0.0005	1062.3 ± 1.2
